According to US20110136108A1, “XBP1(S) Protein Acting as an Adipocyte Differentiation Marker Having a Facility to Regulate Differentiation into Adipocytes, and an Application Therefor” (CATHOLICE UNIVERSITY INDUSTRY ACADEMIC COOPERATION …, priority 2008, published 2011):

Test system: PPARγ2 mRNA
Test: PPARγ2 mRNA expression during adipocyte differentiation (real-time PCR)
Type: cell-based, mouse
Details: SFG-xbp1i cells, 50 μM rosiglitazone in induction medium
Procedure: From the cells subjected to differentiation, total RNA was isolated by chloroform extraction and ethanol precipitation (TRIzol Reagent, Invitrogen, Carlsbad, Calif.). Thereafter, the total RNA was used to synthesize cDNA by RT-PCR (M-MLV reverse transcriptase, Promega, MADISON, Wis.). Real-time PCR was performed using a fluorescent probe of SYBR Green (SYBR Green QPCR Master Mix (2×), TAKARA, JAPAN), with cDNA serving as a template. Relative mRNA expression levels were calculated using a comparative Ct method.
In this regard, XBP1(S) expression-knock-down 3T3-L1 precursor cells (SFG-xbp1i) were induced to differentiate into adipocytes in the presence of 0 or 50 μM rosiglitazone in an induction medium during which the relative expression levels of PPARγ2 mRNA were measured.

CN(CCOc1ccc(CC2SC(=O)NC2=O)cc1)c1ccccn1 (stereo not shown) [rosiglitazone]
expression level of PPARγ2 mRNA relative to absence of rosiglitazone: 20 times
